Results published in patent publication US6339042B1, “Herbicidal N-cyclohexadienyl heteroaryloxyacetamides” (American Cyanamid Co., priority 1999, dated 2002).

Columns and labels:
Conditions in all cases: three weeks after treatment
[1] = tested on: Alopecurus myosuroides; experiment: Pre-emergence herbicidal evaluation, ALOMY; format: in vivo
Excerpt: (§1) The treated pots are then placed on greenhouse benches, watered and cared for in accordance with conventional greenhouse procedures.

[2] = tested on: Zea mays; experiment: Pre-emergence herbicidal evaluation, ZEAMX; format: in vivo
Excerpt: as §1

[3] = tested on: Echinochloa crus-galli; experiment: Post-emergence herbicidal evaluation, ECHCG
Experimental: (§2) The compounds of the invention are tested for pre- and post-emergence herbicidal activity.
(§3) Each pot is examined three weeks after treatment and phytotoxicity is assessed according to the rating system set forth below.
(§4) These acetone solutions are diluted with water and the resulting formulations applied at dosage levels equivalent of about 0.4 to 0.1 kg per hectare of test compound per pot. After spraying the plants are placed on greenhouse benches and are cared for in the usual manner, commensurate with conventional greenhouse practices.

[4] = tested on: Amaranthus tuberculatus; experiment: Pre-emergence herbicidal evaluation, AMATA; format: in vivo
Excerpt: as §1

[5] = tested on: Amaranthus tuberculatus; experiment: Post-emergence herbicidal evaluation, AMATA; format: in vivo
[6] = tested on: Oryza sativum; experiment: Pre-emergence herbicidal evaluation, ORYSA; format: in vivo
Excerpt: as §1

[7] = tested on: Alopecurus myosuroides; experiment: Post-emergence herbicidal evaluation, ALOMY
Experimental: as §2, §3, §4

[8] = tested on: Setaria viridis; experiment: Post-emergence herbicidal evaluation, SETVI
[9] = tested on: Apera spica venti; experiment: Post-emergence herbicidal evaluation, APESV
[10] = tested on: Hordeum vulgare; experiment: Pre-emergence herbicidal evaluation, HORVW; format: in vivo
Excerpt: as §1

[11] = tested on: Setaria viridis; experiment: Pre-emergence herbicidal evaluation, SETVI; format: in vivo
Excerpt: as §1

[12] = tested on: Apera spica venti; experiment: Pre-emergence herbicidal evaluation, APESV; format: in vivo
Excerpt: as §1

[13] = tested on: Echinochloa crus-galli; experiment: Pre-emergence herbicidal evaluation, ECHCG; format: in vivo
Excerpt: as §1

[14] = tested on: Galium aparine; experiment: Post-emergence herbicidal evaluation, GALAP
[15] = tested on: Triticum aestivum; experiment: Pre-emergence herbicidal evaluation, TRZAW; format: in vivo
Excerpt: as §1

[16] = tested on: Glycine max; experiment: Pre-emergence herbicidal evaluation, GLXMA; format: in vivo
Excerpt: as §1

[17] = tested on: Lolium perenne; experiment: Pre-emergence herbicidal evaluation, LOLPE; format: in vivo
Excerpt: as §1

[18] = tested on: Hordeum vulgare; experiment: Post-emergence herbicidal evaluation, HORVW
[19] = tested on: Triticum aestivum; experiment: Post-emergence herbicidal evaluation, TRZAW
[20] = tested on: Glycine max; experiment: Post-emergence herbicidal evaluation, GLXMA
Experimental: as §3, §4

[21] = tested on: Oryza sativum; experiment: Post-emergence herbicidal evaluation, ORYSA
Experimental: as §2, §3, §4

[22] = tested on: Zea mays; experiment: Post-emergence herbicidal evaluation, ZEAMX
[23] = tested on: Lolium perenne; experiment: Post-emergence herbicidal evaluation, LOLPE

In the case of `CCc1nnc(OCC(=O)N(C2=CC(C)(C)CC(C)=C2)C(C)C)s1` [Example 11], the “phytotoxicity rating ALOMY” value ([1]; 0.100 kg/ha) is reported as 7 (7 - Good herbicidal effect), the “phytotoxicity rating ALOMY” value ([1]; 0.200 kg/ha) is reported as 8 (8 - Approaching complete kill) and the “phytotoxicity rating ALOMY” value ([1]; 0.400 kg/ha) is reported as 8 (8 - Approaching complete kill). For the same molecule, the “phytotoxicity rating ALOMY” value ([1]; 0.800 kg/ha) was 9 (9 - Complete kill), the “phytotoxicity rating ZEAMX” value ([2]; 0.100 kg/ha) was 0 (0 - No effect) and the “phytotoxicity rating ZEAMX” value ([2]; 0.200 kg/ha) was 0 (0 - No effect). The “phytotoxicity rating ZEAMX” value ([2]; 0.400 kg/ha) was 0 (0 - No effect), the “phytotoxicity rating ZEAMX” value ([2]; 0.800 kg/ha) was 7 (7 - Good herbicidal effect) and the “phytotoxicity rating ECHCG” value ([3]; 0.100 kg/ha) was 0 (0 - No effect). The “phytotoxicity rating ECHCG” value ([3]; 0.200 kg/ha) was 2 (2 - Slight effect), the “phytotoxicity rating ECHCG” value ([3]; 0.400 kg/ha) was 3 (3 - Moderate effect) and the “phytotoxicity rating AMATA” value ([4]; 0.100 kg/ha) was 0 (0 - No effect). The “phytotoxicity rating AMATA” value ([4]; 0.200 kg/ha) was 0 (0 - No effect), the “phytotoxicity rating AMATA” value ([4]; 0.400 kg/ha) was 0 (0 - No effect) and the “phytotoxicity rating AMATA” value ([4]; 0.800 kg/ha) was 4 (4 - Injury). For the same molecule, the “phytotoxicity rating AMATA” value ([5]; 0.100 kg/ha) was 0 (0 - No effect), the “phytotoxicity rating AMATA” value ([5]; 0.200 kg/ha) was 3 (3 - Moderate effect) and the “phytotoxicity rating AMATA” value ([5]; 0.400 kg/ha) was 4 (4 - Injury). The “phytotoxicity rating ORYSA” value ([6]; 0.100 kg/ha) was 0 (0 - No effect), the “phytotoxicity rating ORYSA” value ([6]; 0.200 kg/ha) was 1 (1 - Trace effect) and the “phytotoxicity rating ORYSA” value ([6]; 0.400 kg/ha) was 4 (4 - Injury). For the same molecule, the “phytotoxicity rating ORYSA” value ([6]; 0.800 kg/ha) was 6 (6 - Herbicidal effect), the “phytotoxicity rating ALOMY” value ([7]; 0.100 kg/ha) was 1 (1 - Trace effect) and the “phytotoxicity rating ALOMY” value ([7]; 0.200 kg/ha) was 7 (7 - Good herbicidal effect). For the same molecule, the “phytotoxicity rating ALOMY” value ([7]; 0.400 kg/ha) was 8 (8 - Approaching complete kill), the “phytotoxicity rating SETVI” value ([8]; 0.100 kg/ha) was 0 (0 - No effect) and the “phytotoxicity rating SETVI” value ([8]; 0.200 kg/ha) was 0 (0 - No effect). The “phytotoxicity rating SETVI” value ([8]; 0.400 kg/ha) was 0 (0 - No effect), the “phytotoxicity rating APESV” value ([9]; 0.100 kg/ha) was 0 (0 - No effect) and the “phytotoxicity rating APESV” value ([9]; 0.200 kg/ha) was 7 (7 - Good herbicidal effect). The “phytotoxicity rating APESV” value ([9]; 0.400 kg/ha) was 5 (5 - Definite injury), the “phytotoxicity rating HORVW” value ([10]; 0.100 kg/ha) was 0 (0 - No effect) and the “phytotoxicity rating HORVW” value ([10]; 0.200 kg/ha) was 0 (0 - No effect). For the same molecule, the “phytotoxicity rating HORVW” value ([10]; 0.400 kg/ha) was 1 (1 - Trace effect), the “phytotoxicity rating HORVW” value ([10]; 0.800 kg/ha) was 4 (4 - Injury) and the “phytotoxicity rating SETVI” value ([11]; 0.100 kg/ha) was 6 (6 - Herbicidal effect). The “phytotoxicity rating SETVI” value ([11]; 0.200 kg/ha) was 8 (8 - Approaching complete kill), the “phytotoxicity rating SETVI” value ([11]; 0.400 kg/ha) was 8 (8 - Approaching complete kill) and the “phytotoxicity rating SETVI” value ([11]; 0.800 kg/ha) was 9 (9 - Complete kill). For the same molecule, the “phytotoxicity rating APESV” value ([12]; 0.100 kg/ha) was 0 (0 - No effect), the “phytotoxicity rating APESV” value ([12]; 0.200 kg/ha) was 0 (0 - No effect) and the “phytotoxicity rating APESV” value ([12]; 0.400 kg/ha) was 5 (5 - Definite injury). For the same molecule, the “phytotoxicity rating APESV” value ([12]; 0.800 kg/ha) was 5 (5 - Definite injury), the “phytotoxicity rating ECHCG” value ([13]; 0.100 kg/ha) was 7 (7 - Good herbicidal effect) and the “phytotoxicity rating ECHCG” value ([13]; 0.200 kg/ha) was 7 (7 - Good herbicidal effect). The “phytotoxicity rating ECHCG” value ([13]; 0.400 kg/ha) was 9 (9 - Complete kill), the “phytotoxicity rating ECHCG” value ([13]; 0.800 kg/ha) was 9 (9 - Complete kill) and the “phytotoxicity rating GALAP” value ([14]; 0.100 kg/ha) was 0 (0 - No effect). For the same molecule, the “phytotoxicity rating GALAP” value ([14]; 0.200 kg/ha) was 0 (0 - No effect), the “phytotoxicity rating GALAP” value ([14]; 0.400 kg/ha) was 0 (0 - No effect) and the “phytotoxicity rating TRZAW” value ([15]; 0.100 kg/ha) was 0 (0 - No effect). For the same molecule, the “phytotoxicity rating TRZAW” value ([15]; 0.200 kg/ha) was 0 (0 - No effect), the “phytotoxicity rating TRZAW” value ([15]; 0.400 kg/ha) was 2 (2 - Slight effect) and the “phytotoxicity rating TRZAW” value ([15]; 0.800 kg/ha) was 3 (3 - Moderate effect). For the same molecule, the “phytotoxicity rating GLXMA” value ([16]; 0.100 kg/ha) was 0 (0 - No effect), the “phytotoxicity rating GLXMA” value ([16]; 0.200 kg/ha) was 0 (0 - No effect) and the “phytotoxicity rating GLXMA” value ([16]; 0.400 kg/ha) was 0 (0 - No effect). The “phytotoxicity rating GLXMA” value ([16]; 0.800 kg/ha) was 0 (0 - No effect), the “phytotoxicity rating LOLPE” value ([17]; 0.100 kg/ha) was 4 (4 - Injury) and the “phytotoxicity rating LOLPE” value ([17]; 0.200 kg/ha) was 5 (5 - Definite injury). For the same molecule, the “phytotoxicity rating LOLPE” value ([17]; 0.400 kg/ha) was 8 (8 - Approaching complete kill), the “phytotoxicity rating LOLPE” value ([17]; 0.800 kg/ha) was 9 (9 - Complete kill) and the “phytotoxicity rating HORVW” value ([18]; 0.100 kg/ha) was 0 (0 - No effect). The “phytotoxicity rating HORVW” value ([18]; 0.200 kg/ha) was 0 (0 - No effect), the “phytotoxicity rating HORVW” value ([18]; 0.400 kg/ha) was 1 (1 - Trace effect) and the “phytotoxicity rating TRZAW” value ([19]; 0.100 kg/ha) was 0 (0 - No effect). For the same molecule, the “phytotoxicity rating TRZAW” value ([19]; 0.200 kg/ha) was 0 (0 - No effect), the “phytotoxicity rating TRZAW” value ([19]; 0.400 kg/ha) was 1 (1 - Trace effect) and the “phytotoxicity rating GLXMA” value ([20]; 0.100 kg/ha) was 3 (3 - Moderate effect). For the same molecule, the “phytotoxicity rating GLXMA” value ([20]; 0.200 kg/ha) was 5 (5 - Definite injury), the “phytotoxicity rating GLXMA” value ([20]; 0.400 kg/ha) was 5 (5 - Definite injury) and the “phytotoxicity rating ORYSA” value ([21]; 0.100 kg/ha) was 0 (0 - No effect). For the same molecule, the “phytotoxicity rating ORYSA” value ([21]; 0.200 kg/ha) was 0 (0 - No effect), the “phytotoxicity rating ORYSA” value ([21]; 0.400 kg/ha) was 2 (2 - Slight effect) and the “phytotoxicity rating ZEAMX” value ([22]; 0.100 kg/ha) was 0 (0 - No effect). The “phytotoxicity rating ZEAMX” value ([22]; 0.200 kg/ha) was 1 (1 - Trace effect), the “phytotoxicity rating ZEAMX” value ([22]; 0.400 kg/ha) was 4 (4 - Injury) and the “phytotoxicity rating LOLPE” value ([23]; 0.100 kg/ha) was 3 (3 - Moderate effect). The “phytotoxicity rating LOLPE” value ([23]; 0.200 kg/ha) was 5 (5 - Definite injury) and the “phytotoxicity rating LOLPE” value ([23]; 0.400 kg/ha) was 8 (8 - Approaching complete kill).
